Patent publication US6800648B2, “Antipsychotic aminomethyl derivatives of 7,8-dihydro-3H-1,6,9-trioxa-3-AZA-cyclopenta[a]naphthalen-2-one” (Wyeth, priority 2001, dated 2004)
Counter-ions that a name gives are not always drawn.

Columns and labels:
dopamine D2 receptor = molecular target: T1, dopamine D2 receptor (Rattus norvegicus, UniProt P61169); test: Dopamine D2 receptor affinity, 3H-quinpirole binding in homogenized rat striatal brain tissue
T1 construct: from tissue; host or cells: rat striatal brain tissue homogenate
Protocol: Affinity for the dopamine D2 receptor was established by a modification of the standard experimental test procedure of Seemen and Schaus, European Journal of Pharmacology 203: 105-109, 1991, wherein homogenized rat striatal brain tissue is incubated with ^3H-quinpirole and various concentrations of test compound, filtered and washed and counted in a Betaplate scintillation counter.

mouse locomotor activity = test: Reduction of mouse locomotor activity (functional antagonism of dopamine receptors in vivo); conditions: mice (male, CF-1), sc, horizontal activity counts 10 to 20 minutes after dosing
Protocol: The antipsychotic activity of the compounds of the invention was established by a determination of functional antagonism of dopamine receptors in vivo, specifically the compounds' ability to reduce mouse locomotor activity according to the method of Martin and Bendensky, J. Pharmacol. Exp. Therap. 229: 706-711, 1984, in which mice (male, CF-1, Charles River, 20-30 g) were injected with vehicle or various doses of each drug and locomotor activity was measured for 30 minutes using automated infrared activity monitors (Omnitech—8×8 inch open field) located in a darkened room. ED50's were calculated from the horizontal activity counts collected from 10 to 20 minutes after dosing using a nonlinear regression analysis with inverse prediction.

T1 sequence (P61169 whole entry): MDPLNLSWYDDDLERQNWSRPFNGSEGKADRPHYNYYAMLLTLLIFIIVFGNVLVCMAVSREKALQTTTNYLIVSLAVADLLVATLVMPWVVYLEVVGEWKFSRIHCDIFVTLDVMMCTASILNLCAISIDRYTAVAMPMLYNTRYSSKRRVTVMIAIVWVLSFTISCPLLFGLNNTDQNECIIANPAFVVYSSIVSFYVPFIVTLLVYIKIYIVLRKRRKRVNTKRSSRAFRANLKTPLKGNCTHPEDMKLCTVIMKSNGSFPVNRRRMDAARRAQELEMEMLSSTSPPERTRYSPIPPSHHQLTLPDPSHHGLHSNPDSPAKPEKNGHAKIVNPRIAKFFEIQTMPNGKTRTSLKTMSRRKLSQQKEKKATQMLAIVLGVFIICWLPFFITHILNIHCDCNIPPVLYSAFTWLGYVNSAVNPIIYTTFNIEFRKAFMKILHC

| melting point [°C] | IC50 (dopamine D2 receptor) [nM] | Structure (SMILES) | ED50 (mouse locomotor activity) [mg/kg] |
| --- | --- | --- | --- |
| 202 | – | O=c1[nH]c2ccc3c(c2o1)OC(CN1CC=C(c2c[nH]c4ccccc24)CC1)CO3 (stereo not shown) | – |
| > 250 | – | NCC1COc2ccc3[nH]c(=O)oc3c2O1 (stereo not shown) (as salt: HCl) [Example 1, 8-Aminomethyl-7,8-dihydro-3H-1,6,9-trioxa-3-aza-cyclopenta[a]naphthalen-2-one] | – |
| 220 | – | O=c1[nH]c2ccc3c(c2o1)OC(CNCc1ccccc1)CO3 (stereo not shown) (as salt: fumarate) (hydrate or solvate) [Example 2, 8-(Benzylamino-methyl)-7,8-dihydro-3H-1,6,9-trioxa-3-aza-cyclopenta[a]naphthalen-2-one] | – |
| 215 to 218 | – | O=c1[nH]c2ccc3c(c2o1)OC(CNCCCCc1ccccc1)CO3 (stereo not shown) (as salt: fumarate) (hydrate or solvate) [Example 4, 8-[(4-Phenyl-butylamino)-methyl]-7,8-dihydro-3H-1,6,9-trioxa-3-aza-cyclopenta[a]naphthalen-2-one] | – |
| – | 3.7 | NCC1COc2ccc3[nH]c(=O)oc3c2O1 (stereo not shown) [Example 1, 8-Aminomethyl-7,8-dihydro-3H-1,6,9-trioxa-3-aza-cyclopenta[a]naphthalen-2-one] | – |
| – | 0.16 | O=c1[nH]c2ccc3c(c2o1)OC(CNCc1ccccc1)CO3 (stereo not shown) [Example 2, 8-(Benzylamino-methyl)-7,8-dihydro-3H-1,6,9-trioxa-3-aza-cyclopenta[a]naphthalen-2-one] | – |
| 210 | 475 | O=c1[nH]c2ccc3c(c2o1)OC(CN(Cc1ccccc1)Cc1ccccc1)CO3 (stereo not shown) [Example 3, 8-[(Dibenzylamino)-methyl]-7,8-dihydro-3H-1,6,9-trioxa-3-aza-cyclopenta[a]naphthalen-2-one] | ≥ 50 |
| – | 2 | O=c1[nH]c2ccc3c(c2o1)OC(CNCCCCc1ccccc1)CO3 (stereo not shown) [Example 4, 8-[(4-Phenyl-butylamino)-methyl]-7,8-dihydro-3H-1,6,9-trioxa-3-aza-cyclopenta[a]naphthalen-2-one] | – |
